What was measured:
[1] = target: Non-receptor tyrosine-protein kinase TYK2 (Homo sapiens, UniProt P29597); assay: TYK2 Activity Inhibition Assay
Experimental: The enzymatic activity of TYK2 was assessed by detecting the substrate phosphorylation level in a kinase reaction with a homogeneous time-resolved fluorescence (HTRF) kinase detection kit (Cisbio, 62TK0PEC). A reaction buffer contained an enzyme buffer (1×), 5 mM MgCl2, 1 mM DTT and 0.01% Brij35 from the kit; a human recombinant TYK2 protein (Carna Biosciences, 08-147) was diluted to a kinase reaction solution of 0.25 ng/μL with the reaction buffer; a substrate reaction solution contained 11.25 μM ATP and a biotin-labeled tyrosine kinase substrate diluted to 0.5 μM with the reaction buffer; a detection buffer contained 0.1 ng/μL Eu3+ labeled cage antibody (Cisbio, 61T66KLB) and 25 nM streptavidin-labeled XL665 (Cisbio, 610SAXLB) in the reaction buffer; the compound was dissolved to 10 μM in DMSO, followed by a serial 4-fold dilution with DMSO to a minimum concentration of 0.061 nM. Each concentration was further diluted 40-fold with the reaction buffer. To a 384-well assay plate (Corning, 3674) were added 4 μL of the compound solutions having a series of concentrations and 2 μL of kinase reaction solutions. After being mixed evenly, the mixtures were incubated at room temperature for 15 minutes, and then 4 μL of the substrate reaction solutions were added.

[2] = target: Tyrosine-protein kinase JAK2 (Homo sapiens, UniProt O60674); assay: JAK2 Activity Inhibition Assay
Chain of Tyrosine-protein kinase JAK2 (O60674 whole entry): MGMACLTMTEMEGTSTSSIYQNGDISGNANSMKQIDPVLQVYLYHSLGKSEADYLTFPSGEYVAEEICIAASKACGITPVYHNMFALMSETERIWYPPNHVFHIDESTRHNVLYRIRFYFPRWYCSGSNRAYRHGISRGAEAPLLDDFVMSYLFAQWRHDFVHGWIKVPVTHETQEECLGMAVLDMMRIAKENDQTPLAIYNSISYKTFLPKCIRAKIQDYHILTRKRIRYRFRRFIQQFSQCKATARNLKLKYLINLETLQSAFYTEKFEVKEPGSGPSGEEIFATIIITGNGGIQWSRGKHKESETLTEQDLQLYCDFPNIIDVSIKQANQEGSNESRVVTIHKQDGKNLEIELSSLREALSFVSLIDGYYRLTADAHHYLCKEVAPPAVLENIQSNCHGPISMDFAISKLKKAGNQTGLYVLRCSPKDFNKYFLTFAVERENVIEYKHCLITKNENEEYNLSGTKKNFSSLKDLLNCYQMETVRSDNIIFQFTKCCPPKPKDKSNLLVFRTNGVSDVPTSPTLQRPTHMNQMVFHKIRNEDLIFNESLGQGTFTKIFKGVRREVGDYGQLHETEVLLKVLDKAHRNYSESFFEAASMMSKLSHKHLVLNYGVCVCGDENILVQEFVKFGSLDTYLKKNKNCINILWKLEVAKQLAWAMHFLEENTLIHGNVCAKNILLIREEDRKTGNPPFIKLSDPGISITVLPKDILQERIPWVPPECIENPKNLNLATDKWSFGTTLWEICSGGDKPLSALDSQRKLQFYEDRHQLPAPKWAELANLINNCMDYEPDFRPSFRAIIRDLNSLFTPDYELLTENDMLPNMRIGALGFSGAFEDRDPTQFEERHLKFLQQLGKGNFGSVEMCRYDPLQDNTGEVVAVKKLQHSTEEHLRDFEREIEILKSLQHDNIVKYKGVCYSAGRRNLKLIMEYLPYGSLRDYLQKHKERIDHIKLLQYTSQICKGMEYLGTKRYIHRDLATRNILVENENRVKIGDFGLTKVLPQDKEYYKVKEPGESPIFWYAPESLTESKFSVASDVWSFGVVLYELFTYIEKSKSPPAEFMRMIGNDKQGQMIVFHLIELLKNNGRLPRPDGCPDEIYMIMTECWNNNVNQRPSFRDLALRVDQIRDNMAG
Experimental: The enzymatic activity of JAK2 was assessed by detecting the substrate phosphorylation level in a kinase reaction with a homogeneous time-resolved fluorescence (HTRF) kinase detection kit (Cisbio, 62TK0PEC). A reaction buffer contained an enzyme buffer (1×), 5 mM MgCl2, 1 mM DTT and 0.01% Brij35 from the kit; a human recombinant JAK2 protein (Carna Biosciences, 08-045) was diluted to a kinase reaction solution of 0.15 ng/μL with the reaction buffer; a substrate reaction solution contained 2.5 μM ATP and a biotin-labeled tyrosine kinase substrate diluted to 0.25 μM with the reaction buffer; a detection buffer contained 0.1 ng/μL Eu3+ labeled cage antibody (Cisbio, 61T66KLB) and 12.5 nM streptavidin-labeled XL665 (Cisbio, 610SAXLB) in the reaction buffer; the compound was dissolved to 10 μM in DMSO, followed by a serial 4-fold dilution with DMSO to a minimum concentration of 0.061 nM. Each concentration was further diluted 40-fold with the reaction buffer. To a 384-well assay plate (Corning, 3674) were added 4 μL of the compound solutions having a series of concentrations and 2 μL of JAK2 kinase reaction solutions. […] An Envision plate reader (Perkin Elmer) was then used to measure the progress of the reaction at wavelengths of 620 nm and 665 nm.

Chain of Non-receptor tyrosine-protein kinase TYK2 (P29597 whole entry): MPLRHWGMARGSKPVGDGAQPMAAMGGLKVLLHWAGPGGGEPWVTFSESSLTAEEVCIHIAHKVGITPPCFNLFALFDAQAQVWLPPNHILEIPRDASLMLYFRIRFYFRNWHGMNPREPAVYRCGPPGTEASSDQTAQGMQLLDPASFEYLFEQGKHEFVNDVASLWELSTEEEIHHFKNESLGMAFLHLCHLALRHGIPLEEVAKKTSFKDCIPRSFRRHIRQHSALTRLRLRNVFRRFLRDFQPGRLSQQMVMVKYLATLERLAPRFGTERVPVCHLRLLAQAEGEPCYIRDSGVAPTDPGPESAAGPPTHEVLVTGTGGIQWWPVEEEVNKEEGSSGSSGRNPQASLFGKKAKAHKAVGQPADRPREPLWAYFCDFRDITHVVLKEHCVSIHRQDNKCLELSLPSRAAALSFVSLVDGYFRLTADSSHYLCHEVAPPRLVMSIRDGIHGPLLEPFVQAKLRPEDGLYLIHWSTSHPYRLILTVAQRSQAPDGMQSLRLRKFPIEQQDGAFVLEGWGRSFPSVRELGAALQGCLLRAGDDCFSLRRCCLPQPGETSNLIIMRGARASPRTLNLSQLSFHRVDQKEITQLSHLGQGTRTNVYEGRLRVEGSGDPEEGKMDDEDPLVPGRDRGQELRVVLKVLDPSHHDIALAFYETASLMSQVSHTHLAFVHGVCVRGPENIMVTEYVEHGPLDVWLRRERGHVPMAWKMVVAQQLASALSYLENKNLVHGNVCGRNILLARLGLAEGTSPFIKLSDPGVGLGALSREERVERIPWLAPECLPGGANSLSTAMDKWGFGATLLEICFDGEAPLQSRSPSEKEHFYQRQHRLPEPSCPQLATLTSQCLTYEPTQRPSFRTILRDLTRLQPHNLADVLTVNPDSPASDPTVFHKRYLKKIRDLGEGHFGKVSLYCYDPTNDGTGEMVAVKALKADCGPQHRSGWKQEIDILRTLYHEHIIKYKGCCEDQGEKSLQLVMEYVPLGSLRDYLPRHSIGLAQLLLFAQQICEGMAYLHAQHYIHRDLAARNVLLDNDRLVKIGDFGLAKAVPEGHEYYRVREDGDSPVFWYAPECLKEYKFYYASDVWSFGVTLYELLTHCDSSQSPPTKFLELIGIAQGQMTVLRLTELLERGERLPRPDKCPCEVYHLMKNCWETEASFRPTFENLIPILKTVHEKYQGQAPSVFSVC

IC50 [1]: 0.2 nM | IC50 [2]: 1.9 nM
Structure (SMILES): O=C1NCCn2c(-c3c(F)cccc3F)nc(Nc3ccc(C(=O)N4CCOCC4)cc3)c21 [US20240246984, Compound 2.]

Source: BindingDB's records for patent US20240246984 (Beijing Innocare Pharma Tech, 2024)
